Converted amounts (≈) assume the structure as drawn.
Columns and labels:
S. aureus UC9213 = test: MIC by standard agar dilution, S. aureus UC9213; format: cell-based; details: incubated overnight at 35° C.; for MIC: Staphylococcus aureus, UC9213, Mueller Hinton agar
Outline: (§1)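 Agar dilution MIC: 2-fold serial compound dilutions in Mueller Hinton agar, spot-inoculated with ~10^4–10^5 cells from 0.5 McFarland suspensions diluted 1:20 in TSB. Incubated overnight at 35 °C; MIC (μg/mL) taken as lowest concentration preventing visible growth.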

S. pneumoniae UC9912 = test: MIC by standard agar dilution, S. pneumoniae UC9912; format: cell-based; details: incubated overnight at 35° C.; for MIC: Streptococcus pneumoniae, UC9912, Mueller Hinton agar
Outline: as §1

H. influenzae 30063 = test: MIC by standard agar dilution, H. influenzae 30063; format: cell-based; details: Mueller Hinton agar, incubated overnight at 35° C.; for MIC: Haemophilus influenzae, 30063, agar dilution, read-out: H. influenzae 30063 MIC
Outline: as §1

Molecule	MIC (S. aureus UC9213)	MIC (S. pneumoniae UC9912)	MIC (H. influenzae 30063)	melting point	S. aureus UC9213 MIC (S. aureus UC9213; Mueller Hinton agar)	S. pneumoniae UC9912 MIC (S. pneumoniae UC9912; Mueller Hinton agar)	H. influenzae 30063 MIC (H. influenzae 30063; agar dilution)
CC(=O)NC[C@H]1CN(c2ccc([C@H]3[C@@H]4CSC[C@@H]43)c(F)c2)C(=O)O1 [Example 1, N-[((5S)-3-{3-fluoro-4-[exo-(1R,5S)-3-thiabicyclo[3.1.0]hex-6-yl]phenyl}-2-oxo-1,3-oxazolidin-5-yl)methyl]acetamide]	4 µg/mL (≈ 11.4 µM)	1 µg/mL (≈ 2.85 µM)	≤ 32 µg/mL	177 to 178 °C	–	–	–
CC(F)(F)C(=O)NC[C@H]1CN(c2cc(F)c([C@H]3[C@@H]4CS(=O)(=O)C[C@@H]43)c(F)c2)C(=O)O1 [Example 60, 2,2-difluoro-N-[((5S)-3-{3,5-difluoro-4-[exo-(1R,5S)-3,3-dioxido-3-thiabicyclo[3.1.0]hex-6-yl]phenyl}-2-oxo-1,3-oxazolidin-5-yl)methyl]propanamide]	8 µg/mL (≈ 17.8 µM)	2 µg/mL (≈ 4.44 µM)	16 µg/mL (≈ 35.5 µM)	–	–	–	–
O=C(NC[C@H]1CN(c2cc(F)c([C@H]3[C@@H]4C[S+]([O-])C[C@@H]43)c(F)c2)C(=O)O1)C1CC1 (stereo partly drawn) [Example 61, N-[((5S)-3-{3,5-difluoro-4-[exo-(1R,5S)-3-oxido-3-thiabicyclo[3.1.0]hex-6-yl]phenyl}-2-oxo-1,3-oxazolidin-5-yl)methyl]cyclopropanecarboxamide]	2 µg/mL (≈ 4.87 µM)	1 µg/mL (≈ 2.44 µM)	8 µg/mL (≈ 19.5 µM)	–	–	–	–
O=C(NC[C@H]1CN(c2cc(F)c([C@H]3[C@@H]4CS(=O)(=O)C[C@@H]43)c(F)c2)C(=O)O1)C1CC1 [Example 62]	4 µg/mL (≈ 9.38 µM)	1 µg/mL (≈ 2.34 µM)	8 µg/mL (≈ 18.8 µM)	–	–	–	–
CCC(=O)NC[C@H]1CN(c2cc(F)c([C@H]3[C@@H]4CN(C(N)=O)C[C@@H]43)c(F)c2)C(=O)O1 [Example 63, exo-(1R,5S)-6-(4-{(5S)-5-[(propanoylamino)methyl]-2-oxo-1,3-oxazolidin-3-yl}-2,6-difluorophenyl)-3-azabicyclo[3.1.0]hexane-3-carboxamide]	2 µg/mL (≈ 4.9 µM)	1 µg/mL (≈ 2.45 µM)	8 µg/mL (≈ 19.6 µM)	–	–	–	–
CCC(=O)NC[C@H]1CN(c2cc(F)c([C@H]3[C@@H]4CN(C(=O)CO)C[C@@H]43)c(F)c2)C(=O)O1 [Example 64, N-[((5S)-3-{3,5-difluoro-4-[exo-(1R,5S)-3-glycoloyl-3-azabicyclo[3.1.0]hex-6-yl]phenyl]-2-oxo-1,3-oxazolidin-5-yl)methyl]propanamide]	4 µg/mL (≈ 9.45 µM)	2 µg/mL (≈ 4.72 µM)	8 µg/mL (≈ 18.9 µM)	–	–	–	–
NC(=O)N1C[C@@H]2[C@H](C1)[C@H]2c1c(F)cc(N2C[C@H](Cn3ccnn3)OC2=O)cc1F [Example 65, exo-(1R,5S)-6-{2,6-difluoro-4-[(5R)-2-oxo-5-(1H-1,2,3-triazol-1-ylmethyl)-1,3-oxazolidin-3-yl]phenyl}-3-azabicyclo[3.1.0]hexane-3-carboxamide]	2 µg/mL (≈ 4.95 µM)	2 µg/mL (≈ 4.95 µM)	16 µg/mL (≈ 39.6 µM)	–	–	–	–
O=C(CO)NC[C@H]1CN(c2ccc([C@H]3[C@@H]4C[S+]([O-])C[C@@H]43)c(F)c2)C(=O)O1 (stereo partly drawn) [Example 66, N-[((5S)-3-{3-fluoro-4-[exo-(1R,5S)-3-oxido-3-thiabicyclo[3.1.0]hex-6-yl]phenyl}-2-oxo-1,3-oxazolidin-5-yl)methyl]-2-hydroxyacetamide]	4 µg/mL (≈ 10.5 µM)	2 µg/mL (≈ 5.23 µM)	8 µg/mL (≈ 20.9 µM)	–	–	–	–
O=C(CO)NC[C@H]1CN(c2ccc([C@H]3[C@@H]4CS(=O)(=O)C[C@@H]43)c(F)c2)C(=O)O1 [Example 67, N-[((5S)-3-{3-fluoro-4-{exo-(1R,5 S)-3,3-dioxido-3-thiabicyclo[3.1.0]hex-6-yl]phenyl}-2-oxo-1,3-oxazolidin-5-yl)methyl]-2-hydroxyacetamide]	4 µg/mL (≈ 10 µM)	4 µg/mL (≈ 10 µM)	4 µg/mL (≈ 10 µM)	–	–	–	–
N#CCC(=O)NC[C@H]1CN(c2ccc([C@H]3[C@@H]4C[S+]([O-])C[C@@H]43)c(F)c2)C(=O)O1 (stereo partly drawn) [Example 68, 2-cyano-N-[((5S)-3-{3-fluoro-4-[exo-(1R,5S)-3-oxido-3-thiabicyclo[3.1.0]hex-6-yl]phenyl}-2-oxo-1,3-oxazolidin-5-yl)methyl]acetamide]	4 µg/mL (≈ 10.2 µM)	1 µg/mL (≈ 2.55 µM)	8 µg/mL (≈ 20.4 µM)	–	–	–	–
N#CCC(=O)NC[C@H]1CN(c2ccc([C@H]3[C@@H]4CS(=O)(=O)C[C@@H]43)c(F)c2)C(=O)O1 [Example 69, 2-cyano-N-[((5S)-3-{3-fluoro-4-[exo-(1R,5S)-3,3-dioxido-3-thiabicyclo[3.1.0]hex-6-yl]phenyl}-2-oxo-1,3-oxazolidin-5-yl)methyl]acetamide]	4 µg/mL (≈ 9.82 µM)	4 µg/mL (≈ 9.82 µM)	8 µg/mL (≈ 19.6 µM)	–	–	–	–
N#CCC(=O)NC[C@H]1CN(c2cc(F)c([C@H]3[C@@H]4C[S+]([O-])C[C@@H]43)c(F)c2)C(=O)O1 (stereo partly drawn) [Example 70, 2-cyano-N-[((5S)-3-{3,5-difluoro-4-[exo-(1R,5S)-3-oxido-3-thiabicyclo[3.1.0]hex-6-yl]phenyl}-2-oxo-1,3-oxazolidin-5-yl)methyl]acetamide]	2 µg/mL (≈ 4.89 µM)	1 µg/mL (≈ 2.44 µM)	4 µg/mL (≈ 9.77 µM)	–	–	–	–
N#CCC(=O)NC[C@H]1CN(c2cc(F)c([C@H]3[C@@H]4CS(=O)(=O)C[C@@H]43)c(F)c2)C(=O)O1 [Example 71, 2-cyano-N-[((5S)-3-{3,5-difluoro-4-[exo-(1R,5S)-3,3-dioxide-3-thiabicyclo[3.1.0]hex-6-yl]phenyl}-2-oxo-1,3-oxazolidin-5-yl)methyl]acetamide]	4 µg/mL (≈ 9.4 µM)	2 µg/mL (≈ 4.7 µM)	4 µg/mL (≈ 9.4 µM)	–	–	–	–
CC(=O)NC[C@H]1CN(c2ccc([C@H]3[C@@H]4CN(C(=N)N)C[C@@H]43)c(F)c2)C(=O)O1 [Example 72, N-{[(5S)-3-(4-{exo-(1R,5S)-3-[amino(imino)methyl]-3-azabicyclo[3.1.0]hex-6-yl}-3-fluorophenyl)-2-oxo-1,3-oxazolidin-5-yl]methyl}acetamide]	32 µg/mL (≈ 85.2 µM)	8 µg/mL (≈ 21.3 µM)	64 µg/mL (≈ 170 µM)	–	–	–	–
CN/C(=N\C#N)N1C[C@@H]2[C@H](C1)[C@H]2c1ccc(N2C[C@H](CNC(C)=O)OC2=O)cc1F [Example 73, exo-(1R,5S)-N′-cyano-6-(4-{(5S)-5-[(acetylamino)methyl]-2-oxo-1,3-oxazolidin-3-yl}-2-fluorophenyl)-N-methyl-3-azabicyclo[3.1.0]hexane-3-carboximidamide]	2 µg/mL (≈ 4.83 µM)	1 µg/mL (≈ 2.41 µM)	4 µg/mL (≈ 9.65 µM)	–	–	–	–
CC(=O)NC[C@H]1CN(c2ccc([C@H]3[C@@H]4CN(/C(N)=N/C#N)C[C@@H]43)c(F)c2)C(=O)O1 [Example 74, exo-(1R,5S)-N′-cyano-6-(4-{(5S)-5-[(acetylamino)methyl]-2-oxo-1,3-oxazolidin-3-yl}-2-fluorophenyl)-3-azabicyclo[3.1.0]hexane-3-carboximidamide]	1 µg/mL (≈ 2.5 µM)	1 µg/mL (≈ 2.5 µM)	4 µg/mL (≈ 9.99 µM)	–	–	–	–
CN/C(=C\[N+](=O)[O-])N1C[C@@H]2[C@H](C1)[C@H]2c1ccc(N2C[C@H](CNC(C)=O)OC2=O)cc1F [Example 75, N-[((5S)-3-{3-fluoro-4-[exo-(1R,5S)-3-((E)-1-{methylamino}-2-nitrovinyl)-3-azabicyclo[3.1.0]hex-6-yl]phenyl}-2-oxo-1,3-oxazolidin-5-yl)methyl]acetamide]	2 µg/mL (≈ 4.61 µM)	2 µg/mL (≈ 4.61 µM)	4 µg/mL (≈ 9.23 µM)	–	–	–	–
CC(=O)NC[C@H]1CN(c2ccc(N3CCOCC3)c(F)c2)C(=O)O1 [linezolid, reference compound]	4 µg/mL (≈ 11.9 µM)	1 µg/mL (≈ 2.96 µM)	16 µg/mL (≈ 47.4 µM)	–	–	–	–
N-[((5S)-3-{3-fluoro-4-[exo-(1R,5S)-3-(1-methyl-1H-tetrazol-5-yl)-3-azabicyclo[3.1.0]hex-6-yl]phenyl}-2-oxo-1,3-oxazolidin-5-yl)methyl]acetamide [Example 45]	–	–	–	–	4 µg/mL	4 µg/mL	16 µg/mL
